Assay results as given in patent publication US11457626B2, “Method for impairing a Cassie-Baxter state” (priority 2016, dated 2022).

How the values were obtained:
[1] = solubility / dispersibility of dipicolinic acid in vehicles; assay type: physicochemical
Source text: As natural emulsifiers, the use of phosphates also greatly expands the possible range of usable solution/suspensions available for the present invention to concomitantly include, along with these phosphates, other arthropod plastron chemical degraders, such as carboxylic, dipicolinic, oxalic acids and their respective salts, as well as terpenes and low molecular weight non-polar alkanes, including cyclic alkanes. Dipicolinic acid is also dually beneficially to this plastron degrading effect because it is also a potent anti-inflammatory PLA2 inhibitor and thus would help reduce the concomitant skin inflammation associated with demodex infestations (U.S. Pat. No. 6,127,393, Antiproliferative, antiinfective, antiinflammatory, autologous immunization agent and method). […] However, the inventor has discovered that dipicolinic acid is soluble in glycerin, a common skin product ingredient, and is colloidal in low molecular weight non-polar solutions and in hyaluronic acid (a very high molecular weight […] common to the eye).

[2] = acidity relative to oxalic acid; assay type: physicochemical
Source text: Further, their respective salts, sodium dipicolinate and monosodium phosphate both have essentially neutral pHs and both are known, powerful natural coordination complex chelators that prefer calcium over sodium in all but basic pH environments. […] This calcium coordination effect is why acidic anions dipicolinic acid and phosphoric acid, as well as their respective salts, are commonly used detergent ingredients (European Patent No. EP 0358472 A2, Detergent Compositions). In addition, phosphates (the phosphoric acid salts) are so safe and non-toxic that they are used as food additives and as emulsifiers.

[3] = cited from earlier work
PLA2 = details: anti-inflammatory; cited from earlier work
demodex mites = details: mineral oil as control and solvent; cited from earlier work

SMILES	solubility in glycerin ([1]; glycerin)	state in hyaluronic acid ([1]; hyaluronic acid)	state in low molecular weight non-polar solutions ([1]; low molecular weight non-polar solutions)	times less acidic than oxalic acid [2]	solubility in water [3]	PLA2 inhibition (PLA2)	activity against demodex mites among tea tree oil ingredients (demodex mites)
O=C(O)c1cccc(C(=O)O)n1 [dipicolinic acid]	soluble	colloidal	colloidal	about 10 times	limited solubility	potent	
O=P(O)(O)O [phosphoric acid]				about 10 times			
CC1=CCC(O)(C(C)C)CC1 (centres unmarked) [terpinen-4-ol]							most active ingredient
